One series deals with KDR (VEGFR2) (Homo sapiens (Human), UniProt P35968). The series is described as follows: Kinase inhibition, Mobility Shift Assay (VEGFR2). It counts as biochemical. An outline of the steps:
(§1)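 Mobility shift assay: each kinase preincubated 10 min at room temperature with compound, then reacted with FAM-labeled peptide, MgCl2 and ATP at 28° C. for varying times. Substrate-to-product conversion read on Caliper; % inhibition normalised to no-kinase and DMSO controls, and IC50 fitted.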

The target in a further series is EGFR (Homo sapiens (Human), UniProt P00533). The series can be described thus: Kinase inhibition, Mobility Shift Assay (EGFR). It counts as biochemical. Summed up:
as §1

Another series concerns the target FLT1 (VEGFR1) (Homo sapiens (Human), UniProt P17948). The series can be described thus: Kinase inhibition, Mobility Shift Assay (VEGFR1). It counts as biochemical. On the procedure:
(§2) This assay directly monitored the ability of compounds to inhibit kinase phosphorylation by measuring non-phosphorylated and phosphorylated substrates in kinase reactions by using Mobility Shift Assays/IMAP™ analysis.
(§3) Add the kinase and DTT to 1× kinase buffer to form a 2.5× kinase solution; transfer 10 μL of 2.5× kinase solution to a 384-well reaction plate and add 1× kinase buffer to negative control wells. Incubate the plate for 10 min at room temperature; add FAM-labeled peptides, MgCl2, ATP and other reagents to 1× kinase buffer to form a 2.5× substrate solution; transfer 10 μL of the above 2.5× substrate solution to the 384-well reaction plate; incubate the plate at 28° C. for different times, and add 25 μL of stop solution to the 384-well reaction plate to stop the reaction. Read the conversion ratio data on CaliperEZ Reader II. Convert conversion rates into inhibition ratio data.
(§4) “Min” indicates the readout of the control well without the addition of kinase; and “Max” indicates the readout of the control well with the addition of DMSO. Fit IC50 values with XLFit excel add-in version 5.4.0.8.
(§5) X indicates the log value of compound concentration, and Y indicates the inhibition ratio (% inhibition).

The next series deals with FLT4 (VEGFR3) (Homo sapiens (Human), UniProt P35916). The series is described as follows: Kinase inhibition, Mobility Shift Assay (VEGFR3). It counts as biochemical. Here is the method: as §2, §3, §4, §5
The test system of a further series is melanin. The series is described as follows: Binding capacity of compounds to melanin. It counts as in vitro ADME. The settings on record: Sepia officinalis (cuttlefish), melanin suspension (1 mg/mL); 1 mg/mL melanin suspension in PBS pH 7.4, 2 μM compound, 2 h at 37° C.; read-out: Fu % (percentage of free drug, not bound to melanin). The source says: Pigmented eye tissues contain melanin in intracellular melanosomes. Drugs bind to melanin to varying degrees, ranging from non-binding to extensive binding. Therefore, melanin binding is an important feature that affects drug delivery and biodistribution in the eye. The binding capacity of a compound to the melanin must be considered in the development of ophthalmic drugs.
Melanin was derived from the melanin of cuttlefish (Sepia officinalis) and was commercially available from Sigma Aldrich (St Louis, MO).
First, prepare 1 mg/mL melanin suspension with PBS (pH 7.4). As a washing step for the matrix, centrifuge the suspended particles for 5 min at 3000 rpm. Resuspend the resulting particles in a fresh PBS buffer, heat to 37° C. over continuous shaking and incubate it for 1 h. Accurately pipette 2 μL of the test stock solution (0.1 mM) into 98 μL of melanin suspension (1 mg/mL) to achieve a final incubation concentration of 2 μM. Similarly, accurately pipette 2 μL of the stock solution (0.1 mM) to 98 μL of PBS buffer (containing 0.1% BSA) as a blank control sample. Incubate the samples in a shaker (80-90 rpm) for 2 h at 37° C. Then, centrifuge the samples at room temperature. Pipette 50 μL of the supernatant and add 50 μL of precipitant (containing an internal standard). After protein precipitation of all the above samples, centrifuge the samples to collect the supernatants, dilute the supernatants with water (if necessary) and inject them for analysis. At the same time, measure the positive controls, including the high-binding compounds Sunitinib and chloroquine and the low-binding compound celecoxib. Establish an LC-MS/MS method for determining compound concentrations, and calibrate the peak area ratio of analyte/internal standard (Analyte/AIS) in the measured sample by the dilution factor to take it as an alternative concentration for the sample for data processing. The binding rate (Fh) of a compound in melanin was calculated as: […]
Ctest was the concentration of the compound in the melanin-incubated sample or the peak area ratio of the test compound to the internal standard. Ccontrol was the concentration of the compound in the blank control sample or the peak area ratio of the test compound to the internal standard. Percentage of free drug (Fu %)=100−Fb The binding rates of the compounds of the present invention to melanin are shown in the table below: […]

Chain of FLT1 (VEGFR1) (P17948 27-1338): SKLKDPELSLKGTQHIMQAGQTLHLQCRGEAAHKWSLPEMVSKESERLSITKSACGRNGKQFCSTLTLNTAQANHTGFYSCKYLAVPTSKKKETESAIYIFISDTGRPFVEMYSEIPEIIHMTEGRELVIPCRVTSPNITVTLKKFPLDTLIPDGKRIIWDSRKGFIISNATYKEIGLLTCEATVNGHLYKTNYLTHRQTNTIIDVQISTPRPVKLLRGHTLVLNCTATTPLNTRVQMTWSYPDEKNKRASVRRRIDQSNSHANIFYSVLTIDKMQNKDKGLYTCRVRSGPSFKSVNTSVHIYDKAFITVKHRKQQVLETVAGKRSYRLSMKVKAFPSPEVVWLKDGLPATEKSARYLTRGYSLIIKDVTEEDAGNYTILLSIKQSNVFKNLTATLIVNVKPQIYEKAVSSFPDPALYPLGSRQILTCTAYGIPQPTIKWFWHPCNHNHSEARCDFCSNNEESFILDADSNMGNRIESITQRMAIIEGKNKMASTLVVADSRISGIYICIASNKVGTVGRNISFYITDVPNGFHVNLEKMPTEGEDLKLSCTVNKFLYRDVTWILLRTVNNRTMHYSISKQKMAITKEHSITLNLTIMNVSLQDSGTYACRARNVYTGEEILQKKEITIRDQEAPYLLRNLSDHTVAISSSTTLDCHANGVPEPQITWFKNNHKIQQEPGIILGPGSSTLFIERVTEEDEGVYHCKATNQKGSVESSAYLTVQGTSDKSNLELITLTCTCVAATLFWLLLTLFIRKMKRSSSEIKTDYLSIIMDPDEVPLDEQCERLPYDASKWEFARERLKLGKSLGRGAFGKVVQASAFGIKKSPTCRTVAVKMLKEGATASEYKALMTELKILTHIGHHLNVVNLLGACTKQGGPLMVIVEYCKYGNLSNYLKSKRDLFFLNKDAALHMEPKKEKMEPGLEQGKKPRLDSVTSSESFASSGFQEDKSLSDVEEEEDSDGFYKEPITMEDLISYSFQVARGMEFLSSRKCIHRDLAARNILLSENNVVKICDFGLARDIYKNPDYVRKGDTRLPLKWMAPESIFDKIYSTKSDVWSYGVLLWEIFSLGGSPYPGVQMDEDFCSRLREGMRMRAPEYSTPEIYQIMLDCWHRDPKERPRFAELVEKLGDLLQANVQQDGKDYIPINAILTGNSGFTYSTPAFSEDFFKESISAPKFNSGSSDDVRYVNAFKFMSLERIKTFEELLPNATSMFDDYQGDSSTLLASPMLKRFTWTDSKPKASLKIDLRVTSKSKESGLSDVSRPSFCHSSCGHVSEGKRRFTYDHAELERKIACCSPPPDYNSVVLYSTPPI
Chain of FLT4 (VEGFR3) (P35916 25-1363): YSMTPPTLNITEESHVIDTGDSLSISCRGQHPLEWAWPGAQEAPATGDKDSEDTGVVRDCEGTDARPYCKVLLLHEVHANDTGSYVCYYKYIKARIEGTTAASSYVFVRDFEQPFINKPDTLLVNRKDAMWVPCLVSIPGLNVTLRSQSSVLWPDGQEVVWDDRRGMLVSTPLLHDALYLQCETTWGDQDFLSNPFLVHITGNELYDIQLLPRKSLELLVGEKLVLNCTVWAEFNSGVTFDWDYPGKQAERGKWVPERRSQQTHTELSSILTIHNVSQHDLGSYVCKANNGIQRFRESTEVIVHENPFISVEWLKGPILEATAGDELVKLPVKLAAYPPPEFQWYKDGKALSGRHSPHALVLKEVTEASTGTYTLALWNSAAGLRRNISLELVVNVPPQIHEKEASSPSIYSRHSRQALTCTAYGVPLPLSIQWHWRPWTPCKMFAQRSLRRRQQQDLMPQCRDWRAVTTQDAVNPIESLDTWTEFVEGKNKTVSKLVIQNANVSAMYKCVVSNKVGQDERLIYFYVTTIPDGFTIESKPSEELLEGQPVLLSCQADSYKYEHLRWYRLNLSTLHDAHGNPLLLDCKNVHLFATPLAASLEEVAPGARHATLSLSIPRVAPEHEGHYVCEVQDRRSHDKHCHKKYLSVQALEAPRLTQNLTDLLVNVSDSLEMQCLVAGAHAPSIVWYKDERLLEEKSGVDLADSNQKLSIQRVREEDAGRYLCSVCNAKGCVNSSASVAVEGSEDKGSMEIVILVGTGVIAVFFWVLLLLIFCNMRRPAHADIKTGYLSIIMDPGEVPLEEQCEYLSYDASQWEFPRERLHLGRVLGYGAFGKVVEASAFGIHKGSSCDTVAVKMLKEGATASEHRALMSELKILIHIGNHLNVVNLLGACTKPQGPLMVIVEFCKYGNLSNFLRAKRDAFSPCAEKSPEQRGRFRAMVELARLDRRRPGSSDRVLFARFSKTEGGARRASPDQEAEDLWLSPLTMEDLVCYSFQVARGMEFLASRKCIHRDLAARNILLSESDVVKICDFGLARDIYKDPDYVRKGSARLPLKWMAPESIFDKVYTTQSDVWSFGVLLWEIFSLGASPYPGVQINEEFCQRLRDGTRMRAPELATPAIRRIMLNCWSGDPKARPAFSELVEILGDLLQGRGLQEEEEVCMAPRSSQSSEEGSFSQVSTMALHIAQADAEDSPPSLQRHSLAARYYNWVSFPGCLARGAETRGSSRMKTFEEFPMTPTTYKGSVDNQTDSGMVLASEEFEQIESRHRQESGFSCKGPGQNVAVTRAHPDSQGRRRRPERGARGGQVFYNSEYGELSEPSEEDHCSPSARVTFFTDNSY
Chain of EGFR (P00533 25-1210): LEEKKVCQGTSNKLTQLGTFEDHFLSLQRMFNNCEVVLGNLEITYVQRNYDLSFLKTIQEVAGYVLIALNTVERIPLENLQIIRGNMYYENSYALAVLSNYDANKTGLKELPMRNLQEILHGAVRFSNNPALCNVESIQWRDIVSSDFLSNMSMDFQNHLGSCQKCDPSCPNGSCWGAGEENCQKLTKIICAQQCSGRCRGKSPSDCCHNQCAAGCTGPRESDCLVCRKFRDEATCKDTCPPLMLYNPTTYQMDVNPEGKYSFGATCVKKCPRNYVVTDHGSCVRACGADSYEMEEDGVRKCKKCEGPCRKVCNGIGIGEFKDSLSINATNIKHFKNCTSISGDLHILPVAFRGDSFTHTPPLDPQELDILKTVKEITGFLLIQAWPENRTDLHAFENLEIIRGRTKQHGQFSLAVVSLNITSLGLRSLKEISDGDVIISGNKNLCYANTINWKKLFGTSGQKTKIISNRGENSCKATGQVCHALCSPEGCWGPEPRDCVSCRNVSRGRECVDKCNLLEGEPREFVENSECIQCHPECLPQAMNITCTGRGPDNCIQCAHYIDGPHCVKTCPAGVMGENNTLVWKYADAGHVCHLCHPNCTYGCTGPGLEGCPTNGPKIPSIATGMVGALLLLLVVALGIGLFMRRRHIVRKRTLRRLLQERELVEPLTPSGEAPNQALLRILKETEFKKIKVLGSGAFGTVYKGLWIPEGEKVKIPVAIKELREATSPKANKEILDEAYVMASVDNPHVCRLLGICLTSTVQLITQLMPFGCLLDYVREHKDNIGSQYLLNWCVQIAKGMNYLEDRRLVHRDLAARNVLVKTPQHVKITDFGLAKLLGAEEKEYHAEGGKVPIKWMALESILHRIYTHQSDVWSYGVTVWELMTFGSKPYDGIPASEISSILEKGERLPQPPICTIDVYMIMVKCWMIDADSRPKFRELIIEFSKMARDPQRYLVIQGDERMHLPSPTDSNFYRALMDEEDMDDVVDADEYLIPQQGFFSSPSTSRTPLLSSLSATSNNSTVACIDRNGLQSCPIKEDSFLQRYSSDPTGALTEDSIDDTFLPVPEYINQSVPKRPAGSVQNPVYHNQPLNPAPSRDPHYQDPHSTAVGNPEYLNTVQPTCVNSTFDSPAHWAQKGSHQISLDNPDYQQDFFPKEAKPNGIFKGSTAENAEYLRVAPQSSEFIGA
Chain of KDR (VEGFR2) (P35968 790-1356): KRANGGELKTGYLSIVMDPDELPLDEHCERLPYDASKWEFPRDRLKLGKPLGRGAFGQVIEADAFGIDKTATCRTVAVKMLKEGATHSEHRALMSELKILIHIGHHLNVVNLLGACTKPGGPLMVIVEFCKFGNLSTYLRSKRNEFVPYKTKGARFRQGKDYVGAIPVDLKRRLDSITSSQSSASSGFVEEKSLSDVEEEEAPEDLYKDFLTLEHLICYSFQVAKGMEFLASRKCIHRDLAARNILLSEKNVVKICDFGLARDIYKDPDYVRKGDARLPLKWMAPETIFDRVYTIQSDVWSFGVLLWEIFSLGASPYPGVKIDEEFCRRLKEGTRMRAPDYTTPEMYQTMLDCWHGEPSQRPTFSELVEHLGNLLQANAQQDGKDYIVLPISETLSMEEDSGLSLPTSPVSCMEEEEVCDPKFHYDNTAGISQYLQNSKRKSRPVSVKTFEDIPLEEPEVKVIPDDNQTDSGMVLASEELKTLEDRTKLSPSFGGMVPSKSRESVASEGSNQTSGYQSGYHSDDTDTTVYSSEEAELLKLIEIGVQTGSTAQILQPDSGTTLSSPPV

On to `CNC(=O)c1ccccc1Sc1ccc2c(/C=C/c3cccc(OCCN4CCCC4)n3)n[nH]c2c1` [Compound I-17, N-methyl-2-({3-[(E)-2-{6-[2-(pyrrolidin-1-yl)ethoxy]pyridin-2-yl}vinyl]-1H-indazol-6-yl}thio)benzamide], for which the concentration for half-maximal inhibition (IC50) lay in the range of 1 to 10 nM at KDR (VEGFR2), 6000 to 60000 nM at EGFR, 1 to 10 nM on FLT1 (VEGFR1) and 1 to 10 nM at FLT4 (VEGFR3). In addition, the fraction unbound at 2 h, 2 μM in the series on melanin was in the range of 0.01 to 0.05.
For the compound `CNC(=O)c1ccccc1Sc1ccc2c(C#Cc3ccc(OCCN4CCCC4)cn3)n[nH]c2c1` [Compound I-16, N-methyl-2-{[3-(2-{5-[2-(pyrrolidin-1-yl)ethoxy]pyridin-2-yl}ethynyl)-1H-indazol-6-yl]thio}benzamide], the IC50 at KDR (VEGFR2) was 1 to 10 nM; on EGFR, 6000 to 60000 nM; at FLT1 (VEGFR1) it was 1 to 10 nM; on FLT4 (VEGFR3) it was 1 to 10 nM. Moreover, the fraction unbound at 2 h, 2 μM in the series on melanin is below 0.01.
On to `CNC(=O)c1c(F)cccc1Sc1ccc2c(/C=C/c3ccc(OCCN4CCCC4)cn3)n[nH]c2c1` [Compound I-36, 2-fluoro-N-methyl-6-({3-[(E)-2-{5-[2-(pyrrolidin-1-yl)ethoxy]pyridin-2-yl}vinyl]-1H-indazol-6-yl}thio)benzamide], for which the 50% inhibitory concentration (IC50) at KDR (VEGFR2) was 1 to 10 nM; at EGFR, 6000 to 60000 nM; at FLT1 (VEGFR1), above 100 nM; at FLT4 (VEGFR3), 1 to 10 nM. Further, the fraction unbound at 2 h, 2 μM in the series with melanin was above 0.05.
For the compound `O=C(NC1CC1)c1cc(F)ccc1Sc1ccc2c(/C=C/c3cc(OCCN4CCCC4)ccn3)n[nH]c2c1` [Compound I-118, N-cyclopropyl-5-fluoro-2-({3-[(E)-2-{4-[2-(pyrrolidin-1-yl)ethoxy]pyridin-2-yl}vinyl]-1H-indazol-6-yl}thio)benzamide], the 50% inhibitory concentration (IC50) is 1 to 10 nM at KDR (VEGFR2), above 60000 nM on EGFR, 10 to 100 nM at FLT1 (VEGFR1) and 10 to 100 nM at FLT4 (VEGFR3). Further, the fraction unbound at 2 h, 2 μM in the series on melanin was below 0.01.
Turning to `CNC(=O)c1ccccc1Sc1ccc2c(/C=C/c3ccnn3CCN3CCCC3)n[nH]c2c1` [Compound I-25, N-methyl-2-({3-[(E)-2-{1-[2-(pyrrolidin-1-yl)ethyl]-1H-pyrazole-5-yl}vinyl]-1H-indazol-6-yl}thio)benzamide], the concentration for half-maximal inhibition (IC50) is above 100 nM on KDR (VEGFR2), 6000 to 60000 nM at EGFR, 10 to 100 nM at FLT1 (VEGFR1) and 10 to 100 nM on FLT4 (VEGFR3). For the same compound, the fraction unbound at 2 h, 2 μM with melanin was above 0.05.
For `CNC(=O)c1ccccc1Sc1ccc2c(C#Cc3cc(OCCN4CCCC4)ccn3)n[nH]c2c1` [Compound I-23, N-methyl-2-{[3-(2-{4-[2-(pyrrolidin-1-yl)ethoxy]pyridin-2-yl}ethynyl)-1H-indazol-6-yl]thio}benzamide], the concentration for half-maximal inhibition (IC50) on KDR (VEGFR2) is 10 to 100 nM; on EGFR, 6000 to 60000 nM; at FLT1 (VEGFR1), 10 to 100 nM; at FLT4 (VEGFR3) it was above 100 nM. For the same compound, in the series with melanin, the fraction unbound at 2 h, 2 μM lay in the range of 0.01 to 0.05.
On to `CNC(=O)c1ccccc1Sc1ccc2c(/C=C/c3cccc(OCCN4CCCC4)c3)n[nH]c2c1` [Compound I-15, N-methyl-2-({3-[(E)-2-{3-[2-(pyrrolidin-1-yl)ethoxy]phenyl}vinyl]-1H-indazol-6-yl}thio)benzamide], for which the IC50 was in the range of 1 to 10 nM on KDR (VEGFR2), 6000 to 60000 nM on EGFR, 1 to 10 nM at FLT1 (VEGFR1) and 1 to 10 nM at FLT4 (VEGFR3). In addition, the fraction unbound at 2 h, 2 μM with melanin is 0.01 to 0.05.
As for `CCNC(=O)c1cccc(F)c1Sc1ccc2c(/C=C/c3cc(CCCN4CCCC4)ccn3)n[nH]c2c1` [Compound I-116, N-ethyl-3-fluoro-2-({3-[(E)-2-{4-[3-(pyrrolidin-1-yl)propyl]pyridin-2-yl}vinyl]-1H-indazol-6-yl}thio)benzamide], the IC50 at KDR (VEGFR2) was 10 to 100 nM; at EGFR it was above 60000 nM; on FLT1 (VEGFR1), 10 to 100 nM; on FLT4 (VEGFR3) it was 10 to 100 nM. Further, the fraction unbound at 2 h, 2 μM in the series on melanin lay in the range of 0.01 to 0.05.

As usually defined, the IC50 is the concentration at which inhibition is half-maximal.
